Measurements published in patent publication US11179409B2, “Cucurbitane tetracyclic triterpenoid compounds for application in treating pulmonary fibrosis” (CHENGDU BIOPURIFY LTD., priority 2015, dated 2021).

Tests used:
[1] = system: bleomycin-induced pulmonary fibrosis model mice; assay: Bleomycin-induced mice pulmonary fibrosis model (tracheal bleomycin, stomach perfusion of drug); type: in vivo; conditions: for Body weights compared with model group / Lung coefficients (lung weight mg/body weight g) compared with model group: high-dose and low-dose mogroside IIIe groups, prednisone acetate 6.67 mg/kg/d, P<0.01; for Body weights compared with model group: after 14 and 28 days of administration, FIG. 1; for Lung coefficients (lung weight mg/body weight g) compared with model group: after administration for 14 days and 28 days, FIG. 2; for Lung tissue fibrosis degree (Masson staining) compared with model group: lung section on day 28, FIG. 3
From the text: The above mogroside IIIe is selected to be subjected to in-vivo pharmacodynamical research. Injection of a bleomycin-induced mice pulmonary fibrosis model is a commonly used method in the world, and such model is similar to a human pulmonary interstitial fibrosis model.
100 male ICR mice with a body weight of 25-30 g are provided by Comparative Medicine Center of Yangzhou University.
20 mice are used as a blank control group (control group in FIG. 1), and the other 80 mice are used for modeling. All the above mice are anesthetized by virtue of intraperitoneal injection of 4% chloral hydrate, with injection volume of 10 ml/kg. After anesthesia, each mouse is fixed and the neck of the mouse is disinfected; the skin of its neck is cut longitudinally with scissors to expose the trachea; the syringe is inserted into the trachea. The mice in the blank control group are injected with normal saline, and the remaining mice are injected with bleomycin (5 mg/kg); then the mouse plate is quickly erected and rotated, and the wound of each mouse is sutured after observing the breathing condition of the mouse, and 1-2 drops of penicillin injection are dropped at the suture. The postoperative mouse is placed back in a dry and clean mouse cage for rest, and then is normally fed after it revives approximately 1-2 h later.
Starting from the day 7 after modeling, the other 80 mice are randomly divided into a model group, a positive drug (prednisone acetate) group, a high-dose mogroside IIIe (50 mg/kg, mogroside IIIe-H) group, a low-dose mogroside IIIe group (10 mg/kg, mogroside IIIe-L), 20 mice in each group.
The mice in the blank control group and the model group are subjected to stomach perfusion with normal saline every day, the mice in the positive drug group are subjected to stomach perfusion with 6.67 mg/kg/d prednisone acetate, the mice in the high-dose/low-dose mogroside IIIe groups are subjected to stomach perfusion with 50 mg/kg/d and 10 mg/kg/d respectively for continuous 28 days, and are killed on the day 14 and the day 28. The each mouse is recorded in body weight, the lung tissue is taken out via dissection, cleaned with ice normal saline, sucked dry with absorbent paper and weighed, and then a lung coefficient is calculated, i.e., lung coefficient=lung weight (mg)/body weight (g). The left lung is put into 4% neutral formaldehyde for fixation, gradually dehydrated with alcohol, transparentized with xylene, immersed in wax, embedded in paraffin, then routinely sectioned and subjected to Masson staining, so that the lung tissue morphology, lung injury condition and pulmonary fibrosis degree are observed. Other lung lobes are individually stored for determination of HYP content.
All data are expressed as mean±SD(x±s). SPSS 11.5 statistical software is used for processing. Statistical analysis is performed using one-way ANOVA. P<0.05 represents this group has statistical significance.
For mice lung tissue injury caused by bleomycin, the number of leukocytes is increased, especially neutrophil infiltration causes alveolar inflammation, and inflammatory cells release inflammatory mediators NO, TNF-α and various cytokines, thereby on one hand, aggravating lung tissue injury and on the other hand promoting excessive increase of collagen through various growth factors. This experiment is performed in accordance with requirement specification of a kit. The number of leukocytes in the bronchoalveolar lavage fluid of the mice in each group is detected by a colorimetric method on the day 14 (as shown in Table 1). Neutrophils and lymphocytes are obviously accumulated in the bronchoalveolar lavage fluid of the mice on the day 14 after treatment with bleomycin (BLM).
Hydrooxyproline (HPY) is an amino acid obtained through protein hydrolysis of connective tissues, accounts for about 14% of the weight of collagen and plays a crucial role in stability of collagen. […]

[2] = system: bleomycin-induced pulmonary fibrosis model mice; assay: as above; type: in vivo; conditions: for Lung tissue fibrosis degree (Masson staining) compared with model group: mice killed on day 28; for Lung coefficients compared with model group: day 28 after modeling, FIG. 7; for No. of neutrophils in bronchoalveolar lavage fluid / Total No. of cells in bronchoalveolar lavage fluid: n = 5
[3] = system: TGF-β1-induced human alveoli type II epithelial cells (A549); assay: α-SMA expression (Western blot) in TGF-β1-induced A549 epithelial-mesenchymal transition; type: cell-based; conditions: TGF-β1 5 ng/mL, culture 48 hours, concentration of 50 μM, FIG. 5
From the text: Alveolar epithelial cells can obtain mesenchymal cell phenotypes through an epithelial cell-mesenchyme transformation (EMT) process to serve as an important source of myofibroblast and muscle fiber metrocyte. In this new mode, epithelial cell-mesenchyme transformation of pulmonary alveoli should be considered as one of key links of fibrosis. In mature cells, injury can induce transformation of epithelial cells into mesenchymal cell phenotype, thus facilitating the fibrosis of many organs. Fibroblasts and muscle fiber metrocytes differentiated from epithelial cells often change through form (for example, change from a cubical cell form to a strip form or a fusiform), obtaining of specific marker of the fibroblast or the muscle fiber metrocyte (for example, α-SMA) and loss of the epithelial character marker (for example, epithelial cell cadherin (E-cadherin and closely linked protein) are fussed together with these epithelial tissues. Through an in-vitro test, A549 cells are induced with TGF-β1 to generate epithelial cell-mesenchyme transformation (EMT), the α-SMA expression level of actin is analyzed adopting a Western blot method, and study meaning of mogroside IIIe on pathogensis of pulmonary fibrosis in a signal transduction pathway of an EMT process is discussed. […]

[4] = system: LPS-induced RAW264.7 cells; assay: NO level in LPS-induced RAW264.7 cells; type: cell-based, mice; conditions: within a range of 10-100 μM
[5] = Example 1, Table 1, 50 mg/kg high-dose group, day 14, mean±SD, *P<0.05 vs model group
[6] = Example 1, on the 28 d after administration, P<0.05 or P<0.01
[7] = Example 2, mogroside IVe 50 mg/kg and 20 mg/kg, prednisone acetate 6.67 mg/kg/d, after administration for 14 days and 28 days, P<0.01, FIG. 6
[8] = Example 2, mogroside IVe 50 mg/kg and 20 mg/kg, prednisone acetate 6.67 mg/kg/d, P<0.01
[9] = Example 3, mogrol 50 mg/kg and 20 mg/kg, prednisone acetate 7.0 mg/kg/d, FIG. 9
[10] = Example 3, Table 3, 50 mg/kg high-dose group, day 14, vs model group
[11] = Example 2, Table 2, 50 mg/kg high-dose group, day 14, *P<0.05 vs model group

Structure (SMILES)	Body weights compared with model group ([1]; Example 1)	Lung coefficients (lung weight mg/body weight g) compared with model group ([1]; Example 1)	Lung tissue fibrosis degree (Masson staining) compared with model group ([1]; Example 1)	Lung tissue fibrosis degree (Masson staining) compared with model group ([2]; Example 2, FIG. 8)	Body weights compared with model group [2, 7]	Lung coefficients compared with model group [2, 8]	Body weights compared with model group [2, 9]	further results
C[C@H](CC[C@@H](O[C@@H]1O[C@H](CO)[C@@H](O)[C@H](O)[C@H]1O[C@@H]1O[C@H](CO)[C@@H](O)[C@H](O)[C@H]1O)C(C)(C)O)[C@H]1CC[C@@]2(C)[C@@H]3CC=C4[C@@H](CC[C@H](O[C@@H]5O[C@H](CO)[C@@H](O)[C@H](O)[C@H]5O)C4(C)C)[C@]3(C)[C@H](O)C[C@]12C [mogroside IIIe]	obviously increased	obviously decreased	fibroblast hyperplasia degree is lower than that in the model group	–	–	–	–	Total number of cells in bronchoalveolar lavage fluid [1, 5]: 32.81 ± 18.53*; Content of TNF-α in the lung tissue compared with model group [1, 6]: significantly lower than those in the model group; Number of neutrophils in bronchoalveolar lavage fluid [2, 5]: 4.28 ± 4.52*; Content of HYP in lung tissue compared with model group ([2]; Example 1, 50 mg/kg, day 28, digestion method, P<0.05, FIG. 4): obviously reduce the content of HYP; Content of TGF-β1 compared with model group [2, 6]: significantly lower than those in the model group; α-SMA expression caused by TGF-β1 [3]: significantly inhibit; Level of NO [4]: dose dependence to inhibit the level of NO
CC(=O)OCC(=O)[C@@]1(O)CC[C@H]2[C@@H]3CCC4=CC(=O)C=C[C@]4(C)[C@H]3C(=O)C[C@@]21C [prednisone acetate, reference compound]	obviously increased	obviously decreased	the degree of the lesion is relieved than that in the model group	relieved	obviously increased	obviously reduced	obviously increased	–
C[C@H](CC[C@@H](O)C(C)(C)O)[C@H]1CC[C@@]2(C)[C@@H]3CC=C4[C@@H](CC[C@H](O)C4(C)C)[C@]3(C)[C@H](O)C[C@]12C [mogrol]	–	–	–	–	–	–	obviously increased	No. of neutrophils in bronchoalveolar lavage fluid [2, 10]: 4.16 ± 4.26 ×10^4; Total No. of cells in bronchoalveolar lavage fluid [2, 10]: 34.72 ± 17.83 ×10^4; Lung tissue fibrosis degree (Masson staining) compared with model group ([2]; Example 3, high-dose/low-dose mogrol (50, 20 mg/kg), FIG. 10): fibroblast hyperplasia degree is lower than that in the model group; Lung index compared with model group ([2]; Example 3, high-dose/low-dose mogrol groups): obviously reduce lung index
C[C@H](CC[C@@H](O[C@@H]1O[C@H](CO)[C@@H](O)[C@H](O)[C@H]1O[C@@H]1O[C@H](CO)[C@@H](O)[C@H](O)[C@H]1O)C(C)(C)O)[C@H]1CC[C@@]2(C)[C@H]3CC=C4[C@@H](CC[C@H](O[C@@H]5O[C@H](CO[C@@H]6O[C@H](CO)[C@@H](O)[C@H](O)[C@H]6O)[C@@H](O)[C@H](O)[C@H]5O)C4(C)C)[C@]3(C)[C@H](O)C[C@]12C [mogroside IVe]	–	–	–	fibroblast hyperplasia degree is lower than that in the model group	obviously increased	obviously reduced	–	No. of neutrophils in bronchoalveolar lavage fluid [2, 11]: 3.97 ± 3.89* ×10^4; Total No. of cells in bronchoalveolar lavage fluid [2, 11]: 30.84 ± 16.49* ×10^4
